How the values were obtained:
[1] = In vitro dissolution test (RespiCell) on fine fraction collected by Fast Screening Impactor; type: physicochemical; conditions: FIG. 3; 800 μg dose, HR RS01 or UHR RS01 vs Nexthaler; PBS with 0.5% SDS, 37 °C
Experimental: In vitro dissolution tests were carried out to compare the performance of the Reference Products and the drug product of the invention at 800 μg, using RespiCell™ (EU registration No 006649570-0001), a vertical diffusion cell apparatus that comprises a 170 cm^3 reservoir filled with the dissolution media and a side arm of 10 cm length. The apparatus is composed of an upper part, the donor chamber, and a lower part, the receptor chamber, linked by a clamp and separated by a glass fiber filter, used as diffusion membrane, and sit horizontally in contact with the dissolution medium. The receptor chamber contains a magnetic stirrer inside it. Type A/E glass fiber filter of 76 mm diameter (PALL Corporation, Port Washington; NY, USA) were employed as diffusion membrane. The dissolution medium employed for the analysis was phosphate-buffer saline (PBS) with 0.5% of Sodium dodecyl sulfate (SDS). RespiCell™ was connected to a heating thermostat (Lauda eco silver E4, DE) set at 37±0.5° C. […] The amount of drug in the samples was assessed by HPLC. The data were expressed as percentage of the compound of formula (I) dissolved and 100% of the dissolution corresponded to the drug amount dissolved at the end of experiment. […] The difference factor (f1) is calculated as follows: […]

[2] = inhalation; multi-dose Nexthaler vs single-dose Aerolizer; cited from earlier work

amount of the compound of formula (I) dissolved, higher in comparison to the Reference Product [1]: 7-20%
Structure (SMILES): CS(=O)(=O)Nc1ccc(C(=O)O[C@@H](Cc2c(Cl)c[n+]([O-])cc2Cl)c2ccc(OC(F)F)c(OCC3CC3)c2)cc1OCC1CC1 [compound of formula (I), 3,5-dichloro-4-[(2S)-2-[3-(cyclopropylmethoxy)-4-(difluoromethoxy)phenyl]-2-{[3-(cyclopropylmethoxy)-4-(methanesulfonamido)benzoyl]oxy}ethyl]pyridinel-oxide]
weighted AUC systemic bioavailability, higher via Nexthaler than via Aerolizer [2]: about 30%
